Assays:
Assay type in all cases: cell-based
[1] = target: T1, rat brain N-type calcium channel (α1B+α2δ+β1b) (Rattus norvegicus, UniProt Q02294); assay: Whole cell patch clamp block of N-type calcium channels expressed in HEK 293 cells; conditions: step to +20 mV from holding potential −80 mV, 0.1 Hz, 5 mM barium external solution
T1 construct: expressed in transfected cells
Experimental: (§1) Antagonist activity was measured using whole cell patch recordings on human embryonic kidney cells either stably or transiently expressing rat α1B+α2b+β1b channels (N-type channels) with 5 mM barium as a charge carrier.
(§2) For transient expression, host cells, such as human embryonic kidney cells, HEK 293 (ATCC# CRL 1573) were grown in standard DMEM medium supplemented with 2 mM glutamine and 10% fetal bovine serum. HEK 293 cells were transfected by a standard calcium-phosphate-DNA coprecipitation method using the rat α1B+β1b+α2δ N-type calcium channel subunits in a vertebrate expression vector (for example, see Current Protocols in Molecular Biology).
(§3) After an incubation period of from 24 to 72 hrs the culture medium was removed and replaced with external recording solution (see below). Whole cell patch clamp experiments were performed using an Axopatch 200B amplifier (Axon Instruments, Burlingame, Calif.) linked to an IBM compatible personal computer equipped with pCLAMP software. Borosilicate glass patch pipettes (Sutter Instrument Co., Novato, Calif.) were polished (Microforge, Narishige, Japan) to a resistance of about 4 MΩ when filled with cesium methanesulfonate internal solution (composition in MM: 109 CsCH3SO4, 4 MgCl2, 9 EGTA, 9 HEPES, pH 7.2). Cells were bathed in 5 mM Ba^++ (in mM: 5 BaCl2, 1 MgCl2, 10 HEPES, 40 tetraethylammonium chloride, 10 glucose, 87.5 CsCl pH 7.2). Current data shown were elicited by a train of 100 ms test pulses at 0.066 Hz from −100 mV and/or −80 mV to various potentials (min. −20 mV, max. +30 mV). Drugs were perfused directly into the vicinity of the cells using a microperfusion system.
(§4) Normalized dose-response curves were fit (Sigmaplot 4.0, SPSS Inc., Chicago, Ill.) by the Hill equation to determine IC50 values. Steady-state inactivation curves were plotted as the normalized test pulse amplitude following 5 s inactivating prepulses at +10 mV increments. Inactivation curves were fit (Sigmaplot 4.0) with the Boltzman equation, Ipeak (normalized)=1/(1+exp((V−Vh)z/25.6)), where V and Vh are the conditioning and half inactivation potentials, respectively, and z is the slope factor.
(§5) The method of Example 1 was followed with slight modifications as will be apparent from the description below.
(§6) N-type calcium channel blocking activity was assayed in human embryonic kidney cells, HEK 293, stably transfected with the rat brain N-type calcium channel subunits (α1B+α2δ+β1b cDNA subunits). Alternatively, N-type calcium channels (α1B+α2δ+β1b cDNA subunits), L-type channels (α1C+α2δ+β1b cDNA subunits) and P/Q-type channels (α1A+α2δ+β1b cDNA subunits) were transiently expressed in HEK 293 cells. […]

[2] = system: rat brain N-type calcium channel (α1B+α2δ+β1b); assay: as above; conditions: N-type, L-type and P/Q-type channels compared
Experimental: as §1, §2, §3, §4, §5, §6

[3] = target: T2, P/Q-type channels (α1A+α2δ+β1b) (Homo sapiens, UniProt O00555); assay: Whole cell patch clamp block of P/Q-type calcium channels transiently expressed in HEK 293 cells; conditions: step to +20 mV from holding potential −80 mV, 0.1 Hz, 5 mM barium external solution
T2 construct: expressed in transfected cells; host or cells: HEK 293 (transient)
Experimental: as §5
(§7) N-type calcium channel blocking activity was assayed in human embryonic kidney cells, HEK 293, stably transfected with the rat brain N-type calcium channel subunits (α1B+α2δ+β1b cDNA subunits). Alternatively, N-type calcium channels (α1B+α2δ+β1b cDNA subunits), L-type channels (α1C+α2δ+β1b cDNA subunits) and P/Q-type channels (α1A+α2δ+β1b cDNA subunits) were transiently expressed in HEK 293 cells. Briefly, cells were cultured in Dulbecco's modified eagle medium (DMEM) supplemented with 10% fetal bovine serum, 200 U/ml penicillin and 0.2 mg/ml streptomycin at 37° C. with 5% CO2. At 85% confluency cells were split with 0.25% trypsin/1 mM EDTA and plated at 10% confluency on glass coverslips. At 12 hours the medium was replaced and the cells transiently transfected using a standard calcium phosphate protocol and the appropriate calcium channel cDNAs. Fresh DMEM was supplied and the cells transferred to 28° C./ 5% CO2. Cells were incubated for 1 to 2 days to whole cell recording.
(§8) Whole cell patch clamp experiments were performed using an Axopatch 200B amplifier (Axon Instruments, Burlingame, Calif.) linked to a personal computer equipped with pCLAMP software. […] Data were analyzed using Clampfit (Axon Instruments) and SigmaPlot 4.0 (Jandel Scientific).

[4] = target: T3, L-type channels (α1C+α2δ+β1b) (Homo sapiens, UniProt Q13936); assay: Whole cell patch clamp block of L-type calcium channels transiently expressed in HEK 293 cells; conditions: step to +20 mV from holding potential −80 mV, 0.1 Hz, 5 mM barium external solution
T3 construct: expressed in transfected cells; host or cells: HEK 293 (transient)
T3 sequence (Q13936 whole entry): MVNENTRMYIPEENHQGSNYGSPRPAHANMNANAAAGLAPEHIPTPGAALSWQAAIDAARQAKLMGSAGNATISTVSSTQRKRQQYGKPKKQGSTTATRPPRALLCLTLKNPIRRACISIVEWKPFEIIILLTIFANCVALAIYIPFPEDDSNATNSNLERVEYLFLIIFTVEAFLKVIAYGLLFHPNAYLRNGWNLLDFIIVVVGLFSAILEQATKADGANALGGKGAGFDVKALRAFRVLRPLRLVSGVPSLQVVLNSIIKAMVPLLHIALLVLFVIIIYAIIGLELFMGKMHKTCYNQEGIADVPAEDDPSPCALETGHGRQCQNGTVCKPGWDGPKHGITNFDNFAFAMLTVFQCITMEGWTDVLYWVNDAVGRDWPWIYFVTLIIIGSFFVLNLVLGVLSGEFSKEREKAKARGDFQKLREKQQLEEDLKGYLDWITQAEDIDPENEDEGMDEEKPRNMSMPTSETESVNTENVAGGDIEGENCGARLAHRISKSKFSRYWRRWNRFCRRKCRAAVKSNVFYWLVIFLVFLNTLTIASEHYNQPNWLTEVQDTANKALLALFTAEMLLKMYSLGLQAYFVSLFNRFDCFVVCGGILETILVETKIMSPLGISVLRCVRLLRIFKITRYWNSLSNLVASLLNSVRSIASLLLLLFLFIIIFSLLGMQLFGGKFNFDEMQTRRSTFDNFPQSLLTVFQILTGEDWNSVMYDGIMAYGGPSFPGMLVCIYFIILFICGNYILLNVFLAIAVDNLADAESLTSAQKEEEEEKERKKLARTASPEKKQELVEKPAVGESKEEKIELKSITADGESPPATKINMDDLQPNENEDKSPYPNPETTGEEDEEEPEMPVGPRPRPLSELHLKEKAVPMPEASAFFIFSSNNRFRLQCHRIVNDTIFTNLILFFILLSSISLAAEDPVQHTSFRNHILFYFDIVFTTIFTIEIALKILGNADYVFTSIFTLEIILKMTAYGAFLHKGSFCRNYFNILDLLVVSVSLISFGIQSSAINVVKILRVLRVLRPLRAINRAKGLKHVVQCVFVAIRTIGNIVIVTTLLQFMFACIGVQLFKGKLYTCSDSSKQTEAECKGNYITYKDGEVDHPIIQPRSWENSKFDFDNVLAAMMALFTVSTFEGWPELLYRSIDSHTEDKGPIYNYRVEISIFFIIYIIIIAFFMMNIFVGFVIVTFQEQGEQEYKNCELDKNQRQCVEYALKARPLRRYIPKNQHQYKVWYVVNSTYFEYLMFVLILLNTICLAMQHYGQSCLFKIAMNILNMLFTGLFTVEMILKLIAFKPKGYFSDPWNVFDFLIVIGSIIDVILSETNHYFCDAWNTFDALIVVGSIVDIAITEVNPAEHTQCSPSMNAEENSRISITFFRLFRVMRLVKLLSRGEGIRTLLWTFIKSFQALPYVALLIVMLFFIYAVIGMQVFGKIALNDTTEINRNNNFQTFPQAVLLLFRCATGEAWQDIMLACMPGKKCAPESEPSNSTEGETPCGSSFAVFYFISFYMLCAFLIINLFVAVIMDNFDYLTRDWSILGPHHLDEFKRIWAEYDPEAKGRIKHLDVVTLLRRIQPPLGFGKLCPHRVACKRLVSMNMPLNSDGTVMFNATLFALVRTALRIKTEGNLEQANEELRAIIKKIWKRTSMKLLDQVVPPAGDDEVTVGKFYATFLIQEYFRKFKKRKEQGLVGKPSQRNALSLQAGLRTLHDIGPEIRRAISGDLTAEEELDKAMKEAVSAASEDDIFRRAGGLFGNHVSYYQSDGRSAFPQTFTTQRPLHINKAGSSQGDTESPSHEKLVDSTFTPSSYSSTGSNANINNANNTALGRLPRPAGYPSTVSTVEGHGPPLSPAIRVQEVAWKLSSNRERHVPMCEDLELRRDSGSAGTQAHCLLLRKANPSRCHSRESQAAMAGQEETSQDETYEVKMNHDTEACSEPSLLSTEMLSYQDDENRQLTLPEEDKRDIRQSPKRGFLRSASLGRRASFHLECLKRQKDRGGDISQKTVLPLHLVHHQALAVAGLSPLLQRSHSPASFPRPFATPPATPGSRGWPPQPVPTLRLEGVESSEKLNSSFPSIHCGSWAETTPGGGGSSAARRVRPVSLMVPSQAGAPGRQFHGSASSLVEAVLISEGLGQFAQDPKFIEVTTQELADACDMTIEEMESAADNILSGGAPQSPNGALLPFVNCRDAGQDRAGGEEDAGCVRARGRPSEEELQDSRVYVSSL
Experimental: as §5, §7, §8

T1 sequence (Q02294 whole entry): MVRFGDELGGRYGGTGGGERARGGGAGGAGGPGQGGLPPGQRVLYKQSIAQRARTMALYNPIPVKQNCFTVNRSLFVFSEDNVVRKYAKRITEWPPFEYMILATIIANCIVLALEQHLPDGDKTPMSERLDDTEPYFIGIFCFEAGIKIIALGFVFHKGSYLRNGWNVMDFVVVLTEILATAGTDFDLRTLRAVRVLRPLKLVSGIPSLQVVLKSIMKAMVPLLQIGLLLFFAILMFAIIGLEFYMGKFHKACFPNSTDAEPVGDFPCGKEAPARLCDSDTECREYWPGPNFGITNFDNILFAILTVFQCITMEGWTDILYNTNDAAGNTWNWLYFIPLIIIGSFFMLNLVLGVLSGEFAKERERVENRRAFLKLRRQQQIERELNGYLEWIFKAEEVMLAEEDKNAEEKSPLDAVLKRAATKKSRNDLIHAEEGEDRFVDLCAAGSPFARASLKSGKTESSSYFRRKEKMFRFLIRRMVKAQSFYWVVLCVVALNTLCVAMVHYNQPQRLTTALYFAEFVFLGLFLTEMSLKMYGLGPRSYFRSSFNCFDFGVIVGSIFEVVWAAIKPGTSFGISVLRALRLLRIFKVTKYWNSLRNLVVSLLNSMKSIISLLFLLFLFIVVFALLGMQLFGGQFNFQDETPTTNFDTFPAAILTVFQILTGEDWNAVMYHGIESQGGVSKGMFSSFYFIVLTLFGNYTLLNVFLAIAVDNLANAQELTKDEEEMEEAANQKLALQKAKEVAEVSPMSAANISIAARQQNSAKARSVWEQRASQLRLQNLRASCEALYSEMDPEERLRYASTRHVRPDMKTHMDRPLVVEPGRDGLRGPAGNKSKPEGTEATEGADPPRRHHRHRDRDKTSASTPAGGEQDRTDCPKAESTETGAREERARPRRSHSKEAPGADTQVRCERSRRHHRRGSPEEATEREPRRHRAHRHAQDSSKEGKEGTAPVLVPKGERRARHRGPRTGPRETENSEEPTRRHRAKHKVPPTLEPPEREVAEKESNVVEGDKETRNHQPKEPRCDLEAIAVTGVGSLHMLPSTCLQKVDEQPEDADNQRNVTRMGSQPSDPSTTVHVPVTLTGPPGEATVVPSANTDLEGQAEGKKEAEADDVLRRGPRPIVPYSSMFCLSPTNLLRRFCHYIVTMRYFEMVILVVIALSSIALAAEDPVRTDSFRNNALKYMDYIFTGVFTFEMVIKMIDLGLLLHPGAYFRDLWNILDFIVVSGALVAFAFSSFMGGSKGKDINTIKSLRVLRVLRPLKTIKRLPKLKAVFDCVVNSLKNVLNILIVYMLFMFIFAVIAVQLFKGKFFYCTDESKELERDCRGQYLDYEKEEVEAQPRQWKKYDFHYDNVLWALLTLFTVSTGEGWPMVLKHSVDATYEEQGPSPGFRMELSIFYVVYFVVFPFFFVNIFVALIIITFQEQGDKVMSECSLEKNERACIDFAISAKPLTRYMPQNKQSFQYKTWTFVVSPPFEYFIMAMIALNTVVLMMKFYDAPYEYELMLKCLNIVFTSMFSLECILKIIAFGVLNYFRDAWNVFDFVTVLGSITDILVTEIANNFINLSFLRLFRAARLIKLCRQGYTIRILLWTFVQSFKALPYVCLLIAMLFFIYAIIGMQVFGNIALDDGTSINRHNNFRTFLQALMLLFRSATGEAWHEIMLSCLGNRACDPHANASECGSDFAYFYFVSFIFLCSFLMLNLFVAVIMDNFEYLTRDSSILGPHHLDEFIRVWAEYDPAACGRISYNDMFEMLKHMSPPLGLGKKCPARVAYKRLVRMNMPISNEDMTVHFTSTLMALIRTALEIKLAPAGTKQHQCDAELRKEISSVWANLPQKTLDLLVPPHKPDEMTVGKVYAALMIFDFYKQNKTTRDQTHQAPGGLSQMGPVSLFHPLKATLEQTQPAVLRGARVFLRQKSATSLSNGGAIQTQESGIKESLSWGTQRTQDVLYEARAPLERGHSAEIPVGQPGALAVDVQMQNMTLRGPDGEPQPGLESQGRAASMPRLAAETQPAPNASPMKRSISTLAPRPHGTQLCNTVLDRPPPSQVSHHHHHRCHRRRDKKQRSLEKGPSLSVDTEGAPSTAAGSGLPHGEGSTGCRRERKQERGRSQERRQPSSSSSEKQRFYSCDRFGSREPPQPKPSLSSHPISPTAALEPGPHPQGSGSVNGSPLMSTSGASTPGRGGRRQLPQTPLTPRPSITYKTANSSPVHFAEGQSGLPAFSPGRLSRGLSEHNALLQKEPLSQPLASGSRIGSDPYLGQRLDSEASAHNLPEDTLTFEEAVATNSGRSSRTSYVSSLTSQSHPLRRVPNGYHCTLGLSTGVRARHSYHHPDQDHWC

Row | Structure (SMILES) | IC50 [1] [µM] | selectivity for N-type channels versus L-type and P/Q-type (in words) [2] | IC50 [3] [µM] | IC50 [4] [µM]
1 | O=C(CCOc1ccc(Cl)cc1Cl)Nc1nnc(C(F)(F)F)s1 [NT044, N-2-(5-trifluoromethyl-1,3,4-thiadiazolyl)-3-(2,4-dichlorophenoxy) propionyl amide] | 0.14 | somewhat selective for N-type channels | 6.4 | 2.06
2 | O=C(COC(c1ccc(Cl)cc1)c1ccc(Cl)cc1)Nc1ncc([N+](=O)[O-])s1 [NT051] | 0.13 | somewhat selective for N-type channels | 6.8 | 1.91

— US20030199523A1, “Heterocyclic calcium in channel blockers” (priority 2002, published 2003)
